Experimental data reported in paper PMC6502747, “Preclinical toxicology and safety pharmacology of the first-in-class GADD45β/MKK7 inhibitor and clinical candidate, DTP3” (Toxicology Reports, 2019).
Like-named read-outs stand apart in the source and are kept apart here.

What was measured:
HepG2 cells = test: multi-parametric cytotoxicity assay (HCS); assay type: cell-based, human
Method: assessment/genetic-toxicology/regulatory-assays.html). Briefly, the numbers of revertant colonies for each of five histidine-requiring strains of Salmonella […]
different classes of genetically active compounds, were evaluated either in the presence or absence of metabolic activation by Aroclor 1254-induced rat liver post-mitochondrial S9 fraction (Supplementary Figure 2B). DTP3 was tested at the […]
expressed as the mean fold increase in colony number for each tester strain upon exposure to DTP3 or strain-specific control compounds (CTR) relative to exposure to vehicle control, either in the presence or absence of metabolic activation (Supplementary Figure 2C). The following significance thresholds were applied to each strain: ≥1.5 folds, strain TA102; ≥2-fold, strains TA98 and TA100; ≥3-fold, […]
(http://www.cyprotex.com/toxicology/multiparametric/cytotoxicity-screening-panel), using High Content Screening (HCS). […]
were treated with a specific dye or antibody, as required by the assay. Plates were then scanned using an ArrayScan VTI automated fluorescence cell imager (Thermo Scientific Cellomics) and analysed for the following measures of toxicity: nuclear size and nuclear morphology, cell membrane permeability, mitochondrial mass, mitochondrial membrane potential (DYm), and cytochrome c release (Figure 2). […]
each compound, cytotoxicity was scored by assessing the minimum effective concentration (MEC) inducing a significant effect relative to vehicle control. […]
and positive controls, respectively. Briefly, upon formation of a stable Gigaohm (GΩ) seal between patch electrodes and individual hERG-expressing HEK-293 cells, hERG-dependent outward tail currents were measured following depolarisation of the cell membrane to […] for 2 s (activation of channels) from a holding potential of - 80 mV, and following subsequent repolarisation to -40 mV, for 3 s. […]
. Electrophysiological measurements were recorded using PatchMaster software (Version v2x73_2). […] The amount of current block was calculated as the percentage of control current. […]

[1] = tested on: Sigma receptors (non-selective); test: Sigma receptor functional assay (agonistic/antagonistic effect); assay type: biochemical
Description: SUPPLEMENTARY FIGURE LEGENDS
Supplementary Figure 1 – Related to Figure 1. […]
Values represent the mean
percentage of variation of the response to the reference Sigma-receptor ligand in the
in the absence of any other agents. […]

CYP2C8 = CYP2C8 (Homo sapiens, UniProt P10632); details: read-out: CYP2C8 IC50
Description: investigated in vitro, using time-dependent inhibition and catalytic induction assays
conducted at Cyprotex laboratories in accordance with in-house SOP

[2] = rat plasma
Method: Pooled plasma and faeces samples were prepared for metabolite profiling and
identification by sequential extraction with acetonitrile. Pooled urine samples were
centrifuged to remove particulate material. For each sample, metabolite profiles
were generated using radio-HPLC. On-line radio-detection was used for urine and
faeces, whereas off-line radio-detection was used for plasma, due to the low
radioactivity levels present in plasma samples. Selected samples were further
analysed by high resolution LC-MS(/MS) in order to characterise the most notable
Results were expressed as the mean of the indicated number of samples. The
statistical error was calculated as either standard deviation (SD) or standard error of
the mean (SEM), as indicated, according to the typology of the experiments.

Sequence of CYP2C8 (P10632 whole entry): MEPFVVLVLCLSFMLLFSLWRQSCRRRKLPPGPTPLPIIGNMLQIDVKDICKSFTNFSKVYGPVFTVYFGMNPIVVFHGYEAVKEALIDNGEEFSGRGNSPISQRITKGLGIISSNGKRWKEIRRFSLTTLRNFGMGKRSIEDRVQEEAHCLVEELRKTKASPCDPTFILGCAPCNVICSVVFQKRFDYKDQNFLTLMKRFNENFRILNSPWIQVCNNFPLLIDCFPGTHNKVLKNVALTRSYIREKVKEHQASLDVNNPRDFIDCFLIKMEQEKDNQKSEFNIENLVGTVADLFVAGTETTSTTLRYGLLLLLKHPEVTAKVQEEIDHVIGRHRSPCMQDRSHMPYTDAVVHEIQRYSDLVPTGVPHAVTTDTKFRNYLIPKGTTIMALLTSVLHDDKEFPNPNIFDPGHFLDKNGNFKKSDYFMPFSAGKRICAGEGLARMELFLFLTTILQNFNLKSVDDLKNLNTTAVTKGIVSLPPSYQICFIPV

CN(C)CCCN1c2ccccc2Sc2ccc(Cl)cc21 [Chlorpromazine, chlorpromazine]
MEC Cell membrane permeability (HepG2 cells): 1.12 µM
MEC Cytochrome C release (HepG2 cells; human, 72 h): 1.30 µM
MEC Mitochondrial membrane potential (HepG2 cells; human, 72 h): 4.70 µM

C[C@@H]1CN(CCCn2c3ccccc3c3ccccc32)C[C@H](C)N1 [Rimcazole, rimcazole]
Antagonistic Effect, Response ([1]; [Drug] 1.0E-0.5 M): -6 % of ligand binding
Antagonistic Effect, Response ([1]; [Drug] 1.0E-0.6 M): 84 % of ligand binding
Antagonistic Effect, Response ([1]; [Drug] 3.0E-0.6 M): 49 % of ligand binding

Cc1ccc(C)c(OCCCC(C)(C)C(=O)O[C@@H]2O[C@H](C(=O)O)[C@@H](O)[C@H](O)[C@H]2O)c1 [gemfibrozilglucuronide]
IC50 (CYP2C8; 0 min): 30.9 µM
IC50 (CYP2C8; 30 min, + NADPH): 5.84 µM
IC50 (CYP2C8; 30 min, - NADPH): 30.3 µM

(+) SKF-10,047
Agonistic Effect, Response [1]: 48 % of ligand binding
Agonistic Effect, Response ([1]; [Drug] 1.0E-0.5 M): 17 % of ligand binding

methoxy-DTP3 [P7 (methoxy DTP3)]
radio-labelled species in plasma profile ([2]; 10 m): 0.8
radio-labelled species in plasma profile ([2]; 1 hr): 0.8
